The text below walks through data of article PMC9030254, “Target Hopping from Protein Kinases to PXR: Identification of Small-Molecule Protein Kinase Inhibitors as Selective Modulators of Pregnane X Receptor from TüKIC Library” (Cells, 2022).

Common to all, as to assay: Kinase profiling
Common to all, as to type: biochemical

For assay [1], the target named is T1, SGK2 (Homo sapiens, UniProt Q9HBY8).
T1 construct: purchased ProQinase (Freiburg, Germany)
T1 sequence (Q9HBY8 1-367): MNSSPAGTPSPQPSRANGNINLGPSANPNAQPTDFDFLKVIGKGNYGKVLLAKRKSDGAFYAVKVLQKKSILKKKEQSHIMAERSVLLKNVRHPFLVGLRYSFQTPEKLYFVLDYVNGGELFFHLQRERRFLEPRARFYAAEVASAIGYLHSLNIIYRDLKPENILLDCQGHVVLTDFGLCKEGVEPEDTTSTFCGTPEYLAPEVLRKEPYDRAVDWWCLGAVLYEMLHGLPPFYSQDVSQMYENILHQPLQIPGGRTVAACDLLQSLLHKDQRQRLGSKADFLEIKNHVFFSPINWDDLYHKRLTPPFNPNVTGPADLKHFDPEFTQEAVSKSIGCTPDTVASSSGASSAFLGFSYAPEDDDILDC
As for the experimental part:
(§1) The analysis was performed by ProQinase (Freiburg, Germany).

Assay [2] addresses T2, MAP3K10 (Homo sapiens, UniProt Q02779).
T2 construct: purchased ProQinase (Freiburg, Germany)
As for the experimental part: as §1

Assay [3] addresses T3, PKCzeta (Homo sapiens, UniProt Q05513).
T3 construct: purchased ProQinase (Freiburg, Germany)
T3 sequence (Q05513 1-592): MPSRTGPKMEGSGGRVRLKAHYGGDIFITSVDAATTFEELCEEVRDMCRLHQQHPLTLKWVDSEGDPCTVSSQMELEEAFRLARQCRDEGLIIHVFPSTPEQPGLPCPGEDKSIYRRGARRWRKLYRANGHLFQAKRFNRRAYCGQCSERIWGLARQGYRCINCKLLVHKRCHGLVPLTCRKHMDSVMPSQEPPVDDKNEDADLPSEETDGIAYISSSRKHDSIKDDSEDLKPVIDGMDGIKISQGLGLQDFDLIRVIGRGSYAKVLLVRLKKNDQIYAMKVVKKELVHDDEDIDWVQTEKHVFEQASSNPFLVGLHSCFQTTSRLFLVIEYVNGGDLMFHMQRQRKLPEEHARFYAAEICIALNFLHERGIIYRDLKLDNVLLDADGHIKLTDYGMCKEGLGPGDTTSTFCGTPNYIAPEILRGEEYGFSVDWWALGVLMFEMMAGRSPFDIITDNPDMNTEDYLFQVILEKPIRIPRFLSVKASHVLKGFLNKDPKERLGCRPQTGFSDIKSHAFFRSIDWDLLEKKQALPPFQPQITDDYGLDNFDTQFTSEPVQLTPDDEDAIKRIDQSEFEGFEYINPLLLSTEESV
As for the experimental part:
as §1

Assay [4] addresses T4, EPHA5 (Homo sapiens, UniProt P54756).
T4 construct: purchased ProQinase (Freiburg, Germany)
The procedure: as §1

Assay [5] deals with T5, MASTL (Homo sapiens, UniProt Q96GX5).
T5 construct: purchased ProQinase (Freiburg, Germany)
T5 sequence (Q96GX5 1-879): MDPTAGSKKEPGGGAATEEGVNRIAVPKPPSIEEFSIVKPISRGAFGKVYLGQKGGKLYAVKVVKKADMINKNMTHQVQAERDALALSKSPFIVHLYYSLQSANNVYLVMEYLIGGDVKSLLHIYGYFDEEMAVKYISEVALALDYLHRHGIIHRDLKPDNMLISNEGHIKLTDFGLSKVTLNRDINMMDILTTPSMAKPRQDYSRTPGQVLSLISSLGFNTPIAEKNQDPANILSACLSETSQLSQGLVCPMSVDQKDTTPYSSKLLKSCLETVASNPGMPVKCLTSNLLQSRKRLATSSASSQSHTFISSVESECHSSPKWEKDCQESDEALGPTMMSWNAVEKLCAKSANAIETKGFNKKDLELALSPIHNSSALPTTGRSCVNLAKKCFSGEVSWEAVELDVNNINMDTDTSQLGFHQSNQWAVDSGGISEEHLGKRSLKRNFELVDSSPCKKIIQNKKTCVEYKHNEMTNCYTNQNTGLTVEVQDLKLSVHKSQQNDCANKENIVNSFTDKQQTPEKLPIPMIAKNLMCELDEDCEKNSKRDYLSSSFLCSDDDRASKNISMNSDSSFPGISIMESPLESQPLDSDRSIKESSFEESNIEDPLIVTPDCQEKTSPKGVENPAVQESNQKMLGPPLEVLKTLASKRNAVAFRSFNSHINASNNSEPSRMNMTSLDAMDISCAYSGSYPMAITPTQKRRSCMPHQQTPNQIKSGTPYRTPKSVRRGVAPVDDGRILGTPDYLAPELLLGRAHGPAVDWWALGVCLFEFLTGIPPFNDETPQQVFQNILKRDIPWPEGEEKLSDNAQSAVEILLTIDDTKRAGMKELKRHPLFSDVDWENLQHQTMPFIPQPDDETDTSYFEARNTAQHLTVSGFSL
The procedure:
as §1

Assay [6] concerns the target T6, ERBB2 (Homo sapiens, UniProt P04626).
T6 construct: purchased ProQinase (Freiburg, Germany)
The procedure:
as §1

Assay [7] deals with T7, CDK5/p25NCK (Homo sapiens, UniProt Q00535).
T7 construct: purchased ProQinase (Freiburg, Germany)
The procedure: as §1

Assay [8] concerns the target T8, CDK20/CycT1 (Homo sapiens, UniProt Q8IZL9).
T8 construct: purchased ProQinase (Freiburg, Germany)
As for the experimental part:
as §1

For assay [9], the target named is T9, RPS6KA2 (Homo sapiens, UniProt Q15349).
T9 construct: purchased ProQinase (Freiburg, Germany)
T9 sequence (Q15349 whole entry): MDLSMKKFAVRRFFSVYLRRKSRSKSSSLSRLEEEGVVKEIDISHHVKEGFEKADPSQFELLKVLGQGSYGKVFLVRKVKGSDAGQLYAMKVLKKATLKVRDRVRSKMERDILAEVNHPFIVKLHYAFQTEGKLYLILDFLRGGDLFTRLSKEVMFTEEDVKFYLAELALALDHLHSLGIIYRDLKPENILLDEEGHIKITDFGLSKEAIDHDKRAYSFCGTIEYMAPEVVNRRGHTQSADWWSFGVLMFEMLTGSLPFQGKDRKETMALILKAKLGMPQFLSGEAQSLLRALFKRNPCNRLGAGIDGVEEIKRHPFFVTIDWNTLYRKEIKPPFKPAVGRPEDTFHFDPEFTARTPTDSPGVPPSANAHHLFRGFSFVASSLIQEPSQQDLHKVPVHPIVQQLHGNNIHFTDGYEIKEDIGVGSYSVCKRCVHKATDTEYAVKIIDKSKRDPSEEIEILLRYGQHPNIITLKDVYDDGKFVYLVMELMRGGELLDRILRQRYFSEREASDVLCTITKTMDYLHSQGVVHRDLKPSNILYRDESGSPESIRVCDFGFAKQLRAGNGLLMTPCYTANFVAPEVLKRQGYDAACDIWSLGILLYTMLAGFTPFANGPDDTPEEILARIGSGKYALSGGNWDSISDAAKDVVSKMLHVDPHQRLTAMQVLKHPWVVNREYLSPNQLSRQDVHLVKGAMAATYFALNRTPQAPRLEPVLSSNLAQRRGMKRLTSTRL
The procedure:
as §1

Assay [10] concerns the target T10, p38gamma (Homo sapiens, UniProt P53778).
T10 construct: purchased ProQinase (Freiburg, Germany)
T10 sequence (P53778 1-367): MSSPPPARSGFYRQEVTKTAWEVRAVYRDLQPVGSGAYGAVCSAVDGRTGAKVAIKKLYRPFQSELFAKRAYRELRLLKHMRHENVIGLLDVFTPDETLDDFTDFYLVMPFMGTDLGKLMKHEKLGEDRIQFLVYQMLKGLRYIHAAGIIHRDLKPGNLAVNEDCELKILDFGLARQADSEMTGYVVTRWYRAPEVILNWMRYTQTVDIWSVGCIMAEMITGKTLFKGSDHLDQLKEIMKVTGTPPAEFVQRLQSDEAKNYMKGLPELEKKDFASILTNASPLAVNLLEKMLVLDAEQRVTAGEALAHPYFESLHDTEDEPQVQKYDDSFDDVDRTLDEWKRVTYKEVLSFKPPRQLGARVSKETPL
As for the experimental part:
as §1

T4 sequence (P54756 25-1037): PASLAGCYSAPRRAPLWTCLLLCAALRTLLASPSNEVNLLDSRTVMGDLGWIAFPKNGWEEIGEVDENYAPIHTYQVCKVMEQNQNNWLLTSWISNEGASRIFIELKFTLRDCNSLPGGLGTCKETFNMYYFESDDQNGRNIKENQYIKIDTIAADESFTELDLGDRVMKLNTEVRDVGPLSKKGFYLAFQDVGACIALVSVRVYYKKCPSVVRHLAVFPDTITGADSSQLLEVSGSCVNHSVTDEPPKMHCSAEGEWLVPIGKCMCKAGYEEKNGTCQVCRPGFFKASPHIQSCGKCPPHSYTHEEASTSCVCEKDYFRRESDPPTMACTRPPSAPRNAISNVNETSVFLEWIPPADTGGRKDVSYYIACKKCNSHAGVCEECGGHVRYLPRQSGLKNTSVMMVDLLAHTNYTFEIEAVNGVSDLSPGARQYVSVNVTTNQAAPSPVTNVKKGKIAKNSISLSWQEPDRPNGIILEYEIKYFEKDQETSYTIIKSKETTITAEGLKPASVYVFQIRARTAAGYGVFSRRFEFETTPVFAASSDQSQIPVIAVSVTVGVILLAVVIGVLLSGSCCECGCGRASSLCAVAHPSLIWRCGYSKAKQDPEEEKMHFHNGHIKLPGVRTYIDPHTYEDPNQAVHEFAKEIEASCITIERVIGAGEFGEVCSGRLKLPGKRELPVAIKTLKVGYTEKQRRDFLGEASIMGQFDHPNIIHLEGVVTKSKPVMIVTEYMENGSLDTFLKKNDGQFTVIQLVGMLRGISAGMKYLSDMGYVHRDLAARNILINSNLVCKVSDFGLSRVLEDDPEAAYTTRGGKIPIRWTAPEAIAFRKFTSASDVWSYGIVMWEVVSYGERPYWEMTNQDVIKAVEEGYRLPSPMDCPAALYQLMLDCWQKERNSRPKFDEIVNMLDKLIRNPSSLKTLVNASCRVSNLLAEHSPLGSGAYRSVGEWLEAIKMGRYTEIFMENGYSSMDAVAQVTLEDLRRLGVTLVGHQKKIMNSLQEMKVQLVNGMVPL
T6 sequence (P04626 23-1255): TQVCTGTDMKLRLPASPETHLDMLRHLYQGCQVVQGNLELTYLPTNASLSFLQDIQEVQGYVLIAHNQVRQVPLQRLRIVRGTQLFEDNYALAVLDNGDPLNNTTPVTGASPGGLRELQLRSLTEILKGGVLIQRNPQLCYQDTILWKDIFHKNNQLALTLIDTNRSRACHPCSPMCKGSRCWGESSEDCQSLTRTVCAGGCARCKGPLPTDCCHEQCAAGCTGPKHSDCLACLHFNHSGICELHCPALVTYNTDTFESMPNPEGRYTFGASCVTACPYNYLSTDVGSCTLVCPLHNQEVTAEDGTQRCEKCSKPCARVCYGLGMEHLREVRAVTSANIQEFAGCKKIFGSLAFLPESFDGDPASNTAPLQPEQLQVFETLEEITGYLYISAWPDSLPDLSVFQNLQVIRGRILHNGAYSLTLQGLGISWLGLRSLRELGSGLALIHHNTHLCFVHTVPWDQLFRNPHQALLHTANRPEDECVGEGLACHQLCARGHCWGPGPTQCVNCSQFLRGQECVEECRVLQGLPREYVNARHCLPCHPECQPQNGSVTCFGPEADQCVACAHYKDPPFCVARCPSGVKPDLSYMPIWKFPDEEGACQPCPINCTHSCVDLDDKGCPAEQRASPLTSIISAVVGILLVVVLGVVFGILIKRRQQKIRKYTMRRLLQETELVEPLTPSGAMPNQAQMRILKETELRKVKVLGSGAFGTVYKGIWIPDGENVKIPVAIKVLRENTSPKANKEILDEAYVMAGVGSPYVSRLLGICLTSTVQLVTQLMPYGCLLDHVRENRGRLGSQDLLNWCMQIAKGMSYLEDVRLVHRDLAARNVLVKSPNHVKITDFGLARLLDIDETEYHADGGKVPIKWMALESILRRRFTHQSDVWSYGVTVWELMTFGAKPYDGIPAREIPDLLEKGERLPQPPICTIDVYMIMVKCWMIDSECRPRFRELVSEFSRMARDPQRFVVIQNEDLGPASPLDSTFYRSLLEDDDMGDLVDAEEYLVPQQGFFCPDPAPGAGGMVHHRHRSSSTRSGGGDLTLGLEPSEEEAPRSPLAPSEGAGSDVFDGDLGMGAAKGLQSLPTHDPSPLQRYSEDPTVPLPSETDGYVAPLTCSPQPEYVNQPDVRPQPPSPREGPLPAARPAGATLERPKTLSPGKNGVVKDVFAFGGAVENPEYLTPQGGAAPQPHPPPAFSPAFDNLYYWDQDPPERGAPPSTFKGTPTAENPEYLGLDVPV
T8 sequence (Q8IZL9 whole entry): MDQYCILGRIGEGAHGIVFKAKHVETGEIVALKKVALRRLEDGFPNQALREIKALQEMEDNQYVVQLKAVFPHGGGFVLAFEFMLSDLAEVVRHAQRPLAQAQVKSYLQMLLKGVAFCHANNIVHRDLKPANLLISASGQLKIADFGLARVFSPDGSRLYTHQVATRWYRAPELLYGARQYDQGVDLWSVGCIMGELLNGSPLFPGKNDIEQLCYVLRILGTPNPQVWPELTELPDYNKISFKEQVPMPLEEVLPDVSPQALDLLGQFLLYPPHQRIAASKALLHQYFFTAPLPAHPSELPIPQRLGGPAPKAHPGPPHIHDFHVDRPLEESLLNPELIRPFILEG
T8 sequence (O60563 whole entry partner): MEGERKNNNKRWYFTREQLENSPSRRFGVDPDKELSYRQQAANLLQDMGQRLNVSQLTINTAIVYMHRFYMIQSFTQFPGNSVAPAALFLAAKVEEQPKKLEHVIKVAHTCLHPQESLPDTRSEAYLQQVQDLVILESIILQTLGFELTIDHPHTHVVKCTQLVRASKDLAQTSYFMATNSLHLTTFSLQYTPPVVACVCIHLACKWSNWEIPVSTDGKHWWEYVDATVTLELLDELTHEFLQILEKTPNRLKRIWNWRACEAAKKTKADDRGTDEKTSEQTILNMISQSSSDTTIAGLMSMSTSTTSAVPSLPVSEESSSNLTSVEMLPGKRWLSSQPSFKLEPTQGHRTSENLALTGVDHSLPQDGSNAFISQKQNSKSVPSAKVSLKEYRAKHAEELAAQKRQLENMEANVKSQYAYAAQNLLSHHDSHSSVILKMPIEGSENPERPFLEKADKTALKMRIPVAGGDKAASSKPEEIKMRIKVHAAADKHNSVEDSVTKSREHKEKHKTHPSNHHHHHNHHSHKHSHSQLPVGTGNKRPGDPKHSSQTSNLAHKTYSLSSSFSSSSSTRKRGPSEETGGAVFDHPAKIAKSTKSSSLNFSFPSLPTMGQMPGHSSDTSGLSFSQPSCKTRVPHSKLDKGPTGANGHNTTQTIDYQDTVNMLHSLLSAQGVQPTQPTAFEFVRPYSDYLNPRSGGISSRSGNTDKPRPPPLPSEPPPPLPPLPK
T2 sequence (Q02779 whole entry): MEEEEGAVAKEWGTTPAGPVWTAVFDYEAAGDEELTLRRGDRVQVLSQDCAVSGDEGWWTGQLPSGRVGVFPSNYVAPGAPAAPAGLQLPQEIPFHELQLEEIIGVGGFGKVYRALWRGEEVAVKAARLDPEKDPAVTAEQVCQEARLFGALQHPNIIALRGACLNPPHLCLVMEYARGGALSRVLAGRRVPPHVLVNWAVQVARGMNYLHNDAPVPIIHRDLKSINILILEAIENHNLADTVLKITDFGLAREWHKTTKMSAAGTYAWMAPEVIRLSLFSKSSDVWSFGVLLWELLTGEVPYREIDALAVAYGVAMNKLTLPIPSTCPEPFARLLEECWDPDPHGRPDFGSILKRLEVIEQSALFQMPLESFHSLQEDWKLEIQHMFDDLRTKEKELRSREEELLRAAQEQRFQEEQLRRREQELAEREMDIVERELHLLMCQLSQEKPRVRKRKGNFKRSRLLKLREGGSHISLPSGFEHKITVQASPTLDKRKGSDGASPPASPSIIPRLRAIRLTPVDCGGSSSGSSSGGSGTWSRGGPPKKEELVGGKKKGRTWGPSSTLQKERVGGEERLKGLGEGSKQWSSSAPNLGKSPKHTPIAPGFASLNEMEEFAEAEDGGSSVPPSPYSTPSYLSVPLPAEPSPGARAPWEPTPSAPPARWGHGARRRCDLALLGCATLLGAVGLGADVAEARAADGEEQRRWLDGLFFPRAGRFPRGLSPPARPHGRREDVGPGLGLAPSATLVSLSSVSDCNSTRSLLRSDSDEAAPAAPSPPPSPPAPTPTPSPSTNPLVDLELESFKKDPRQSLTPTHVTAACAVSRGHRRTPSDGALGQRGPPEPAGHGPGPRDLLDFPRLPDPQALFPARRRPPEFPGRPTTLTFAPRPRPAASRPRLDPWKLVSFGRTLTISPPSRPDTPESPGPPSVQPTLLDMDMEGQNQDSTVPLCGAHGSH

On to `O=C(Cc1ccccc1)Nc1ccc(F)c(Nc2ccc3c(c2)CCCCC3=O)c1` [Compound 100], for which the Residual activity in assay [1] (1.0E-05 M) was 93 % of control; in assay [1] (1.0E-06 M) it was 101 % of control; in assay [2] (1.0E-05 M) it was 84 % of control; in assay [2] (1.0E-06 M) it was 106 % of control; in assay [3] (1.0E-05 M), 102 % of control; in [3] (1.0E-06 M) it was 92 % of control. In addition, the Residual activity in [4] (1.0E-05 M) was 67 % of control; in assay [4] (1.0E-06 M), 96 % of control; in assay [5] (1.0E-05 M), 92 % of control; in assay [5] (1.0E-06 M) it was 99 % of control; in [6] (1.0E-05 M), 79 % of control; in [6] (1.0E-06 M) it was 96 % of control. Besides, the Residual activity in [7] (1.0E-05 M) is reported as 90 % of control; in [7] (1.0E-06 M) it was 99 % of control; in assay [8] (1.0E-05 M), 92 % of control; in assay [8] (1.0E-06 M), 98 % of control; in assay [9] (1.0E-05 M), 84 % of control; in assay [9] (1.0E-06 M), 95 % of control. Further, the Residual activity is reported as 84 % of control in assay [10] (1.0E-05 M) and 93 % of control in assay [10] (1.0E-06 M).
As to `O=C(Nc1ccc(F)c(Nc2ccc3c(c2)CCCCC3=O)c1)c1cccc(F)c1` [Compound 109], the Residual activity is 96 % of control in assay [1] (1.0E-05 M); 97 % of control in assay [1] (1.0E-06 M); 91 % of control in [2] (1.0E-05 M); 96 % of control in [2] (1.0E-06 M); 96 % of control in [3] (1.0E-05 M); 87 % of control in assay [3] (1.0E-06 M). Further, the Residual activity is reported as 60 % of control in assay [4] (1.0E-05 M); 93 % of control in [4] (1.0E-06 M); 99 % of control in assay [5] (1.0E-05 M); 94 % of control in [5] (1.0E-06 M); 86 % of control in assay [6] (1.0E-05 M); 99 % of control in [6] (1.0E-06 M). Further, the Residual activity is 95 % of control in [7] (1.0E-05 M); 95 % of control in [7] (1.0E-06 M); 101 % of control in assay [8] (1.0E-05 M); 96 % of control in assay [8] (1.0E-06 M); 75 % of control in [9] (1.0E-05 M); 95 % of control in [9] (1.0E-06 M). Moreover, the Residual activity in assay [10] (1.0E-05 M) is given as 52 % of control; in assay [10] (1.0E-06 M), 88 % of control.
